IC50 data for 1 compound are collected here from paper PMC11670956, “A cell-based Papain-like Protease (PLpro) activity assay for rapid detection of active SARS-CoV-2 infections and antivirals” (PLOS ONE, 2024).

Each structure is given as a SMILES string.

The target of this test is T1, SARS-CoV-2 Papain-like protease (PLpro) (Severe acute respiratory syndrome coronavirus 2, UniProt P0DTD1).
T1 construct: gene rep; natural full-length PLpro (nsp3) made in infected VeroE6 cells, crude lysate; mature chain nsp3 of replicase polyprotein 1a / 1ab
Put plainly: fluorogenic Pun74-R110 peptide cleavage in lysates of infected, inhibitor-pretreated VeroE6 cells. The settings on record: unreliable (tentative; one experiment in duplicate); inhibitor given to live cells 2 h before infection (0.01 MOI, 24 h, 37 °C); PLpro read in lysate with 50 nM Pun74-R110, 5 mM DTT, pH 7.4, room temp. The test is classed as biochemical.

As to `Cc1ccc(N)cc1C(=O)N[C@H](C)c1cccc2ccccc12` [GRL0617], the IC50 stood at 38.3 µM.

What is called IC50 is the concentration that inhibits the measured activity by half.
